These are literature values, as cited in publication PMC5306265 (Investigational New Drugs, 2016).

Series [1] has as its system pERK. Set-up: method as in PMID 18390968, PMID 24178622. The note with it: paired tumor biopsies; cited from earlier work.
Series [2] relates to BRAF V600E/K-mutant melanoma. On the set-up: method as in PMID 22663011, PMID 22805292. The note with it: cited from earlier work.

Take `Cn1cnc2c(F)c(Nc3ccc(Br)cc3Cl)c(C(=O)NOCCO)cc21` [selumetinib]: the “geometric mean pERK reduction” value in series [1] is reported as 79%.

Take `CC(=O)Nc1cccc(-n2c(=O)n(C3CC3)c(=O)c3c(Nc4ccc(I)cc4F)n(C)c(=O)c(C)c32)c1` [trametinib]: the response rates result in series [2] is recorded as “approximately 20%”.
